Key:
Sprague-Dawley rats = assay: Reversal of Phencyclidine (PCP)-Induced Hyperlocomotor Activity in Rats; assay type: in vivo; details: Rattus norvegicus
Excerpt: Administration of NMDA receptor antagonists, such as ketamine or phencyclidine (PCP), produces psychotomimetic-like effects in humans that are similar to those symptoms observed in patients with schizophrenia.
Motor activity is monitored by placing individual male, Sprague-Dawley (Harlan, Indianapolis, Ind.) rats in transparent, plastic shoe-box cages of the dimensions 45×25×20 cm, with 1 cm depth of wood chips as bedding, and a metal grill on top of the cage. Motor monitors (Kinder Scientific) consist of a rectangular rack of 12 photobeams arranged in an 8×4 formation, (or a high density grouping of 22 in a 15×7 pattern) at a height of 5 cm, with a second rack (for measuring rearing behaviors) at a height of 15 cm. The shoe box cage is placed inside of these racks, with the racks on a 3 foot high tabletop in an isolated room. A compound of the present invention is dosed (intraperitoneal route (i.p.), non-prodrug) within a range of 0.3-10 mg/kg, 30 minutes prior to a 5 mg/kg challenge dose of phencyclidine (PCP). A compound of the present invention is dosed (oral route, prodrug) within a range of 0.3-30 mg/kg, in overnight fasted rats, 4 hours prior to a 5 mg/kg challenge dose of PCP. On the test day, rats are placed in the test cage and allowed to acclimate for 30 minutes prior to PCP challenge; rats are monitored for an additional 60 minutes following PCP administration.
Data analysis and ED50 calculations are conducted using GraphPad Prism (San Diego, Calif. USA). Power analyses have determined that 8-10 rats per group are needed to have appropriate statistical power for detecting treatment differences (power=0.8). A one-way analysis of variance (ANOVA) with a post-hoc Dunnett's multiple comparison test is conducted on the total 60 minute locomotor activity. ED50 calculations are performed using non-linear regression curve fitting on percent reversal transformed data for each dose.

ICR(CD-1) mice = assay: Reversal of Phencyclidine (PCP)-Induced Hyperlocomotor Activity in Mice; assay type: in vivo, mouse; details: i.p.
Excerpt: This assay for Reversal of Phencyclidine (PCP)-Induced Hyperlocomotor Activity in Mice is run substantially as the Reversal of Phencyclidine (PCP)-Induced Hyperlocomotor Activity in Rats assay provided above, using mice instead of rats and with the changes noted below.
Motor activity is monitored by placing individual male, ICR(CD-1), (Harlan, Indianapolis, Ind.) mice in transparent, plastic shoe-box cages of the dimensions 45×25×20 cm, with 0.5 cm depth of wood chips as bedding, and plastic lid on top of the cage. Motor monitors (Kinder Scientific) consist of a rectangular rack of 12 photobeams arranged in an 8×4 formation, (or a high density grouping of 22 in a 15×7 pattern) at a height of 2.5 cm. The shoe box cage is placed inside of these racks, with the racks on a 3 foot high tabletop in an isolated room. A compound of the present invention is dosed (intraperitoneal route, non-prodrug) usually within a range of 0.3-30 mg/kg; though higher doses may be used, 30 minutes prior to a 7.5 mg/kg challenge dose of phencyclidine (PCP). On the test day, mice are placed in the test cage and allowed to acclimate for 45 minutes prior to PCP challenge; mice are monitored for an additional 60 minutes following PCP administration.
Power analyses have determined that 7-8 mice per group are needed to have appropriate statistical power for detecting treatment differences (power=0.8).

Fischer F-344 rats = assay: Attenuation of Stress-Induced Hyperthermia in Rats; assay type: in vivo, rat; details: dose producing 35% reduction in stress-induced hyperthermic response
Excerpt: In many anxiety disorders, hyperthermia occurs as part of the pathology and is considered a symptom of the disease. Compounds which attenuate stress-induced hyperthermia in animals are believed to be useful in treating anxiety disorders in humans. Generalized anxiety disorder is an example of such disorders that may be treated with such compounds. The conventional and minimally-invasive method for analyzing stress-induced hyperthermia is by measuring body temperature, and stress-induced increases in body temperature, via rectal thermometer. Male Fischer F-344 rats (Harlan, Indianapolis, Ind., USA) weighing between 275-350 g are tested. All animals are individually-housed with food and automated water available ad libitum, and maintained on a 12 h light/dark cycle (lights on at 06:00). Animals are fasted for approximately 12-18 hours before the experiment, which is conducted during the light phase. Rats are dosed two hours prior to the experiment by either intraperitoneal (i.p., non-prodrug) or per os (p.o., prodrug) route of administration in a dose volume of 1 mL/kg. […]
After the pretreatment period, rats are taken individually to a brightly lit adjacent room where baseline body temperatures are determined by insertion of a rectal probe lubricated with mineral oil. Body temperature is assessed using a […] […] Ten minutes later a second body temperature measurement is recorded (T2). […]

[1] = 1 h, 10 µM, pH 7.4
Description: Frozen human duodenum intestinal homogenates (1:2 tissue:buffer ratio using 100 mM Tris Phosphate buffer, pH 7.4) are obtained from Celsius In Vitro Technologies (Baltimore, Md.) that were both phenylmethylsulphonylfluoride (PMSF) and EDTA free.
Each lot of human duodenum is obtained from a single donor and the intestine is scraped and the sections are frozen separate. All original tissue collections are performed at 4° C. and immediately frozen at −70° C. Human intestinal homogenates are thawed and diluted to a final protein concentration of 0.5 mg/mL in 100 mM PBS buffer, pH 7.4 immediately prior to the incubations.
Incubations are conducted in 96-well plates and all prodrug compounds are run in duplicate on each day. Stock prodrug compound solutions are prepared in water at a concentration of 1 mM. A 200 μL aliquot of 0.5 mg/mL intestinal homogenate and 196 μL of 100 mM PBS buffer are placed in a 96-well plate in a 37° C. water bath. Using a 96-well pipettor, 4 μL of the 1 mM prodrug compound solution is transferred into the homogenate. Immediately after addition of the prodrug compound (time zero) and after 1 hour incubation, 50 μL samples of the incubation mixture are removed using an automated disposable simultaneous 96 well pipettor and added directly to 200 μL of methanol quench solution containing 100 ng/mL of Internal Standard. The samples are then centrifuged at 3500 rpm for 5 minutes at 10° C. The supernatant (200 μL) is transferred to a final 96 well PCR plate and sealed for analysis by LC/MS/MS.
Concentrations of hydrolyzed compounds of the present invention in the incubation mixtures are determined using LC/MS/MS detection on a Sciex API 4000 quadrapole mass spectrometer with Analyst version 1.4.2, TurboIonSpray, positive ionization, and Selected Reaction Monitoring (SRM). A Waters Atlantis® T3 (20×2.1 mm, 5 μM) HPLC column is used at ambient temperature with a flow rate of 1.0 mL/min and a mobile phase gradient from 0.1% mobile phase A to 99% mobile phase A. Mobile phase A is 1000:5 water:heptafluorobuteric acid and mobile phase B is 1:1 methanol:glacial acetic acid.
Concentrations of hydrolyzed compounds of the present invention in the intestinal incubation mixtures are determined from standard curves prepared by replicate two-fold dilution starting at 10 μM in 100 mM PBS pH 7.4 and subsequently quenched with methanol-internal standard solution identical to the samples. Averages and standard deviations are calculated using Microsoft® Office Excel® 2007. Amount of hydrolysis is determined as a molar percentage of compound formed relative to prodrug compound concentration added. […] Final values are then normalized relative to the formation of Internal Compound Drug A.

Compound	ED50 (Sprague-Dawley rats; 0.5 h, i.p., 30 minutes prior to 5 mg/kg PCP)	inhibition of PCP evoked ambulations (ICR(CD-1) mice; multiple dose experiment, 10 mg/kg dose)	inhibition of PCP evoked ambulations (ICR(CD-1) mice; single dose experiment of 10 mg/kg)	T35 (Fischer F-344 rats; i.p.)	human intestinal hydrolysis relative to Internal Prodrug Compound A [1]	ED50 (Sprague-Dawley rats; p.o., overnight fasted, 4 hours prior to 5 mg/kg PCP)	T35 (Fischer F-344 rats; p.o.)
N[C@@]1(C(=O)O)C[C@@H](Sc2nnc[nH]2)[C@H]2[C@H](C(=O)O)[C@H]21 [Example 1, (1R,2S,4R,5R,6R)-2-Amino-4-(4H-1,2,4-triazol-3-ylsulfanyl)bicyclo[3.1.0]hexane-2,6-dicarboxylic acid]	1.23 mg/kg	81±5%	78±9%	1.27 mg/kg			
C[C@H](N)C(=O)N[C@@]1(C(=O)O)C[C@@H](Sc2nnc[nH]2)[C@H]2[C@H](C(=O)O)[C@H]21.Cl [Example 2, (1R,2S,4R,5R,6R)-2-[[(2S)-2-Aminopropanoyl]amino]-4-(1H-1,2,4-triazol-3-ylsulfanyl)bicyclo[3.1.0]hexane-2,6-dicarboxylic acid hydrochloride]					61%	2.94 mg/kg	16.2 mg/kg
